# Source: paper PMC3048208 (British Journal of Cancer, 2011)
# Structures can show the parent of a compound that is named as a salt. Marks after values point to notes of the source that are not given here.
# Tested on: patients with advanced solid tumours
# Test: Phase I safety: DLT and adverse events (CTCAE v3.0)
# [1] = Grades 3/4, level 5.5, 60 mg, 7 patients
# [2] = Grades 3/4, level 6, 70 mg, 6 patients
# [3] = Grades 3/4, level 7, 90 mg, 2 patients
# [4] = all 38 treated patients, all grades
# [5] = dose level 3, dose 20, 5 days every 2 weeks
# [6] = dose level 6, dose 70, 5 days every 2 weeks, re-opened for expansion
smiles,measurement,setting,value
"CCCCc1nc2cc(/C=C/C(=O)NO)ccc2n1CCN(CC)CC [SB939, 3-[2-butyl-1-(2-diethylaminoethyl)-1H-benzoimidazol-5-yl]-N-hydroxyacrylami-hydrochloride]","AST (raised), no. of patients",[1],0
same,"Abdominal pain, no. of patients",[1],0
same,"Alkaline phophatase (raised), no. of patients",[1],0
same,"Altered taste, no. of patients",[1],0
same,"Anaemia, no. of patients",[1],0
same,"Anorexia, no. of patients",[1],0
same,"Bilirubin (raised), no. of patients",[1],0
same,"CPK, no. of patients",[1],0
same,"Cardiac arrythmia other, no. of patients",[1],0
same,"Cardiac dysfunction, no. of patients",[1],0
same,"Cardiac ischaemia, no. of patients",[1],0
same,"Constipation, no. of patients",[1],0
same,"Creatinine (raised), no. of patients",[1],0
same,"Diarrhoea, no. of patients",[1],1
same,"Fatigue, no. of patients",[1],1
same,"Leukopenia, no. of patients",[1],1
same,"Lymphopenia, no. of patients",[1],3
same,"Mucositis, no. of patients",[1],0
same,"Myositis, no. of patients",[1],0
same,"Nausea, no. of patients",[1],0
same,"Neutropenia, no. of patients",[1],0
same,"QT prolongation, no. of patients",[1],0
same,"Supra ventricular arrythmia, no. of patients",[1],0
same,"Syncope, no. of patients",[1],0
same,"Thrombocytopenia, no. of patients",[1],0
same,"Ventricular arrythmias (PVCs), no. of patients",[1],0
same,"Ventricular bigemini, no. of patients",[1],0
same,"Vomiting, no. of patients",[1],0
same,"ALT (raised), no. of patients",[2],0
same,"AST (raised), no. of patients",[2],0
same,"Abdominal pain, no. of patients",[2],0
same,"Alkaline phophatase (raised), no. of patients",[2],0
same,"Altered taste, no. of patients",[2],0
same,"Anaemia, no. of patients",[2],0
same,"Anorexia, no. of patients",[2],0
same,"Bilirubin (raised), no. of patients",[2],0
same,"CPK, no. of patients",[2],0
same,"Cardiac arrythmia other, no. of patients",[2],0
same,"Cardiac dysfunction, no. of patients",[2],0
same,"Cardiac ischaemia, no. of patients",[2],0
same,"Constipation, no. of patients",[2],0
same,"Creatinine (raised), no. of patients",[2],0
same,"Diarrhoea, no. of patients",[2],0
same,"Fatigue, no. of patients",[2],2
same,"Leukopenia, no. of patients",[2],1
same,"Lymphopenia, no. of patients",[2],3
same,"Mucositis, no. of patients",[2],0
same,"Myositis, no. of patients",[2],0
same,"Nausea, no. of patients",[2],0
same,"Neutropenia, no. of patients",[2],1
same,"QT prolongation, no. of patients",[2],0
same,"Supra ventricular arrythmia, no. of patients",[2],0
same,"Syncope, no. of patients",[2],0
same,"Thrombocytopenia, no. of patients",[2],1
same,"Ventricular arrythmias (PVCs), no. of patients",[2],0
same,"Ventricular bigemini, no. of patients",[2],0
same,"Vomiting, no. of patients",[2],0
same,"ALT (raised), no. of patients",[3],0
same,"AST (raised), no. of patients",[3],0
same,"Abdominal pain, no. of patients",[3],0
same,"Alkaline phophatase (raised), no. of patients",[3],0
same,"Altered taste, no. of patients",[3],0
same,"Anaemia, no. of patients",[3],0
same,"Anorexia, no. of patients",[3],0
same,"Bilirubin (raised), no. of patients",[3],0
same,"CPK, no. of patients",[3],0
same,"Cardiac arrythmia other, no. of patients",[3],0
same,"Cardiac dysfunction, no. of patients",[3],0
same,"Cardiac ischaemia, no. of patients",[3],0
same,"Constipation, no. of patients",[3],0
same,"Creatinine (raised), no. of patients",[3],0
same,"Diarrhoea, no. of patients",[3],0
same,"Fatigue, no. of patients",[3],1
same,"Leukopenia, no. of patients",[3],0
same,"Lymphopenia, no. of patients",[3],0
same,"Mucositis, no. of patients",[3],0
same,"Myositis, no. of patients",[3],0
same,"Nausea, no. of patients",[3],0
same,"Neutropenia, no. of patients",[3],0
same,"QT prolongation, no. of patients",[3],0
same,"Supra ventricular arrythmia, no. of patients",[3],0
same,"Syncope, no. of patients",[3],0
same,"Thrombocytopenia, no. of patients",[3],0
same,"Ventricular arrythmias (PVCs), no. of patients",[3],0
same,"Ventricular bigemini, no. of patients",[3],0
same,"Vomiting, no. of patients",[3],1
same,"Dose omissions, no. of patients","RPTD 60 mg, n=7, alteration of liver function tests",two
same,"Dose reductions, no. of patients","RPTD 60 mg, n=7, transaminase rise and QTc prolongation",two
same,"Grade 3 diarrhea, no. of patients",all 38 treated patients,one
same,"Grade 3 fatigue, no. of patients",all 38 treated patients,4
same,"Grade 3 myositis, no. of patients",all 38 treated patients,one
same,"Grade 3 syncope, no. of patients",all 38 treated patients,one
same,"Grade 3 vomiting, no. of patients",all 38 treated patients,one
same,"Anorexia, related AE, frequency",[4],29%
same,"Diarrhoea, related AE, frequency",[4],18%
same,"Fatigue, related AE, frequency",[4],53%
same,"Nausea, related AE, frequency",[4],39%
same,"Vomiting, related AE, frequency",[4],29%
same,"Grade 2 QTc prolongation, no. of patients",all dose levels,four
same,Grade 3 QTc elevations,all dose levels,none were grade 3
same,No. of patients with DLT/total no. of patients treated,"dose level 1, dose 10, 3 days every 2 weeks",0/3
same,No. of patients with DLT/total no. of patients treated,"dose level 2, dose 10, 5 days every 2 weeks, grade 3 bilirubin subsequently declared not drug related",1/6 ^a
same,DLT,[5],Grade 3 myositis
same,No. of patients with DLT/total no. of patients treated,[5],1/6
same,No. of patients with DLT/total no. of patients treated,"dose level 4, dose 30, 5 days every 2 weeks",0/4
same,No. of patients with DLT/total no. of patients treated,"dose level 5, dose 50, 5 days every 2 weeks",0/4
same,DLT,"dose level 5.5, dose 60, 5 days every 2 weeks, not clear if entirely related to drug",Grade 3 ALT ^d
same,No. of patients with DLT/total no. of patients treated,"dose level 6, dose 70, 5 days every 2 weeks, escalation phase",0/3
same,DLT,[6],Grade 4 platelets Grade 3 fatigue
same,No. of patients with DLT/total no. of patients treated,[6],3/3
same,DLT,"dose level 7, dose 90, 5 days every 2 weeks",Grade 3 fatigue Grade 3 vomiting
same,No. of patients with DLT/total no. of patients treated,"dose level 7, dose 90, 5 days every 2 weeks, neither patient completed a full cycle",1/2 ^b
same,"Grade 2 QTc prolongation, no. of patients",dose level of 60 mg or higher,three
same,"Granulocytopenia, patients",dose levels ⩽50 mg,26%
same,"Lymphopenia, patients",dose levels ⩽50 mg,57%
same,"Granulocytopenia, patients",dose ⩾60 mg,60%
same,"Lymphopenia, patients",dose ⩾60 mg,80%
same,"Thrombocytopenia, patients",dose ⩾60 mg,87%
same,"Anaemia, no. of patients",grade 1,25
same,"Anaemia, no. of patients",grade 2,10
same,"Anaemia, no. of patients",grade 3,1
same,"Anaemia on study, no. of patients","of 38 patients, any grade",Thirty-six
same,Maximum QTc,"one patient, Day 1 cycle 7, 10 h after dose, unclear if drug related",475 ms
same,LVEF during periods of arrhythmia,"one patient, cycle 7, baseline 55%, unclear if drug related",20–39%
same,Recommended phase II dose (RPTD),"oral, 5 consecutive days every 2 weeks",60 mg
same,Maximal administered dose (MAD),"oral, 5 days every 2 weeks",90 mg
same,"Grade 3 CPK elevation, no. of patients",patient with myositis,one
